The results in this text go back to ChEMBL document CHEMBL4177568 (Bioorg Med Chem Lett, 2017).

Assay [1] has as its target Neuronal acetylcholine receptor. Briefly: Binding affinity to nAChR in rat brain membranes. The class given is cell membranes, Membrane.
The target in assay [2] is T1, Neuronal acetylcholine receptor; alpha4/beta2 (Homo sapiens) (UniProt P17787+P43681). Briefly: Agonist activity at alpha4beta2 nAChR (unknown origin) expressed in Xenopus laevis oocytes assessed as increase in peak current at 30 uM at -60 mV holding potential by electrophysiology method. The class given is cell-based.
Assay [3] addresses T1, Neuronal acetylcholine receptor; alpha4/beta2 (Homo sapiens). Nature of the assay: Antagonist activity at alpha4beta2 nAChR (unknown origin) expressed in Xenopus laevis oocytes assessed as reduction in acetylcholine-induced peak current at 30 uM at -60 mV holding potential by electrophysiology method. It is filed as cell-based.
Assay [4] concerns the target T2, Neuronal acetylcholine receptor; alpha3/beta4 (Homo sapiens, UniProt P30926+P32297). Briefly: Agonist activity at human alpha3beta4 nAChR expressed in Xenopus laevis oocytes assessed as increase in peak current at 100 uM at -60 mV holding potential by electrophysiology method. The class given is cell-based.
Assay [5] addresses Neuronal acetylcholine receptor subunit alpha-7 (Homo sapiens) (UniProt P36544). Briefly: Antagonist activity at alpha7 nAChR (unknown origin) expressed in Xenopus laevis oocytes assessed as reduction in acetylcholine-induced peak current at 60 uM at -60 mV holding potential by electrophysiology method. It is filed as cell-based.
In assay [6] the target is T2, Neuronal acetylcholine receptor; alpha3/beta4. Briefly: Antagonist activity at human alpha3beta4 nAChR expressed in Xenopus laevis oocytes assessed as reduction in acetylcholine-induced peak current at 100 uM at -60 mV holding potential by electrophysiology method. The class given is cell-based.
In assay [7] the target is Neuronal acetylcholine receptor subunit alpha-7 (Homo sapiens) (UniProt P36544). Nature of the assay: Agonist activity at alpha7 nAChR (unknown origin) expressed in Xenopus laevis oocytes assessed as increase in peak current at 60 uM at -60 mV holding potential by electrophysiology method. The class given is cell-based.
Assay [8] addresses T2, Neuronal acetylcholine receptor; alpha3/beta4. Briefly: Antagonist activity at human alpha3beta4 nAChR expressed in Xenopus laevis oocytes assessed as reduction in acetylcholine-induced peak current at -60 mV holding potential by electrophysiology method. It is filed as cell-based.

Molecules are shown by their SMILES. Active and inactive are the calls of the source. No cut-off for these calls is given here.

T2 sequence (P30926 whole entry): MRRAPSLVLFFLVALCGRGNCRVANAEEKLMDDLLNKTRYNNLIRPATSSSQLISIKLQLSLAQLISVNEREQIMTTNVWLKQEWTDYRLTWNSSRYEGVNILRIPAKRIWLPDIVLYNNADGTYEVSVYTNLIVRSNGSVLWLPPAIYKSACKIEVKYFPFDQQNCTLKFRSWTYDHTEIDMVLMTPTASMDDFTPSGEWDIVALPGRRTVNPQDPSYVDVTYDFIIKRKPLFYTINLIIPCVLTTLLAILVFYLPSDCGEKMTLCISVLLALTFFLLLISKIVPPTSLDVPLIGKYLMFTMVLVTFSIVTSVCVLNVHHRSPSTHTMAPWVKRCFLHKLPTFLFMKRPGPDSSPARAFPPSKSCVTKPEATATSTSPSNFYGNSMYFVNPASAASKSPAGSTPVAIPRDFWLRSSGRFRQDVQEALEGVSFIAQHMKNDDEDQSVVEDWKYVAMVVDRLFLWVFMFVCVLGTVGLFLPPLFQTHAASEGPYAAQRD
T2 sequence (P32297 whole entry): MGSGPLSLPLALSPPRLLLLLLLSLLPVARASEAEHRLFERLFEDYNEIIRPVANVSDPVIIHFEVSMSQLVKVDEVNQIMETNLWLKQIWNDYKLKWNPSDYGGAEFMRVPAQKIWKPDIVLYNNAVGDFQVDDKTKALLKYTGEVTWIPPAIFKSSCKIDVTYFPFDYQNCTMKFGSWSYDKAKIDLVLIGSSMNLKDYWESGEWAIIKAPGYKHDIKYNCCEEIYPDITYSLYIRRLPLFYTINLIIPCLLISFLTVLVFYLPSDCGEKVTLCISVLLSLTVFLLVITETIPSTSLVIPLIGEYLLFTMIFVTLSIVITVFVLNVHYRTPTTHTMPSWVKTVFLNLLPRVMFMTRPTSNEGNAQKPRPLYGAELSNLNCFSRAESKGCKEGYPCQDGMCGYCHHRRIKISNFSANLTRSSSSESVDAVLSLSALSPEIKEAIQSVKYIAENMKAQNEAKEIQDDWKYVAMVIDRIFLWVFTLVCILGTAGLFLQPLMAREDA
Chain of Neuronal acetylcholine receptor subunit alpha-7 (Homo sapiens) (P36544 whole entry): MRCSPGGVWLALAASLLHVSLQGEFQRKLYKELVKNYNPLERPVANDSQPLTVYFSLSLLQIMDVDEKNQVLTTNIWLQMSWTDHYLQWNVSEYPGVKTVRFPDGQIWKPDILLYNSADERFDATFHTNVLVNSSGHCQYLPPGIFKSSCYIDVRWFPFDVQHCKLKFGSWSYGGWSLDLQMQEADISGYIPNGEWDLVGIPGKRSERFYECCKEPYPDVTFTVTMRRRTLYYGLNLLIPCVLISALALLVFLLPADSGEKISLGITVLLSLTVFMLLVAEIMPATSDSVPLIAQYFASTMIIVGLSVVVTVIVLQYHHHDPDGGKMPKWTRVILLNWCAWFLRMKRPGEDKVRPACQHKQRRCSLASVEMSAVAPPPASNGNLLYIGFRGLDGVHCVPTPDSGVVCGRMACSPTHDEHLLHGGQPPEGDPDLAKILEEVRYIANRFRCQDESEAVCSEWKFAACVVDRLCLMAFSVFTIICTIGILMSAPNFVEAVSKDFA

The Kd is the constant that tells how readily two partners part at equilibrium. A higher Kd goes with lower affinity. In the case of `CN1CCC=C(c2ccc(Cl)nc2)C1`, binding in assay [1] was put at a Kd of 2.2 nM.
What is called IC50 is the concentration at which inhibition is half-maximal. In general, Ki refers to a dissociation constant, usually derived from enzyme kinetics or from competition with a known ligand. As for `CN1CCC=C(c2cnc(F)c(-c3ccccc3)c2)C1`, the result in assay [2], in assay [4] and in assay [7] was inactive. The inhibition result in assay [3] and in assay [5] was “inactive” each time. Further, the inhibition entry in assay [6] is “Active”. Moreover, the 50% inhibitory concentration (IC50) in assay [8] was determined as 20 µM. In addition, the Ki in assay [8] came out at 123 nM.
